These results are taken from PubChem BioAssay AID1259407 (Chemical Carcinogenesis Research Information System (CCRIS), 2018).

The series relates to CCRIS mutagenicity, Ames/micronucleus/aberration tests. In words: CCRIS mutagenicity studies.
[1] abbreviates: Test System: AMES SALMONELLA TYPHIMURIUM, Strain/Indicator: TA100, Metabolic Activation: NONE, Method: PREINCUBATION
Where [2] appears, read: Test System: AMES SALMONELLA TYPHIMURIUM, Strain/Indicator: TA100, Metabolic Activation: NONE, Method: STANDARD PLATE.
Where [3] appears, read: Test System: AMES SALMONELLA TYPHIMURIUM, Strain/Indicator: TA98, Metabolic Activation: NONE, Method: STANDARD PLATE.
Where [4] appears, read: Test System: AMES SALMONELLA TYPHIMURIUM, Strain/Indicator: TA97, Metabolic Activation: NONE, Method: STANDARD PLATE.

SMILES strings stand for the structures. Activity calls are given as the source filed them. The rule behind the calls is not given here.

For the compound `C=CCOc1ccccc1OCC(O)CN(N=O)C(C)C` (stereo unspecified), the mutagenic call (Test System: CHINESE HAMSTER V-79, Strain/Indicator: V-79/6-THIOGUANINE, Metabolic Activation: NONE, Method: REPLATING) was “inactive; negative”; the mutagenic call (Test System: CHINESE HAMSTER V-79, Strain/Indicator: V-79/6-THIOGUANINE, Metabolic Activation: RAT, HEPATOCYTES, Method: REPLATING) is “active; positive”; the mutagenic call (Test System: CHINESE HAMSTER V-79, Strain/Indicator: V-79/OUABAIN, Metabolic Activation: NONE) was “inactive; negative”; the mutagenic call (Test System: CHINESE HAMSTER V-79, Strain/Indicator: V-79/OUABAIN, Metabolic Activation: RAT, HEPATOCYTES) was “inactive; negative”; the mutagenic call (Test System: UDS HUMAN HEPATOCYTES, Strain/Indicator: THY INCORP, Metabolic Activation: NONE, Method: AUTORADIOGRAPHY) is “active; positive”; the mutagenic call (Test System: UDS RAT HEPATOCYTES, Strain/Indicator: THY INCORP, Metabolic Activation: NONE, Method: AUTORADIOGRAPHY) is “active; positive”.

For `N[C@@H](CS/C(Cl)=C(\Cl)C(Cl)=C(Cl)Cl)C(=O)O`, the mutagenic call under setting [1] was “active; positive”; the mutagenic call under setting [2] is “active; positive”; the mutagenic call (Test System: AMES SALMONELLA TYPHIMURIUM, Strain/Indicator: TA100, Metabolic Activation: RAT, KIDNEY, S-9, AROCLOR 1254, Method: STANDARD PLATE) is “active; positive”; the mutagenic call (Test System: AMES SALMONELLA TYPHIMURIUM, Strain/Indicator: TA2638, Metabolic Activation: NONE, Method: PREINCUBATION) was “active; positive”.

For `Cc1cnc2ccc3c(nc(NO)n3C)c2n1`, the mutagenic call under setting [3] is “active; positive”.

On to `CCCCOCN(C(=O)CCl)c1c(CC)cccc1CC`, for which the mutagenic call is “inactive; negative” under setting [2]; “active; positive” (Test System: AMES SALMONELLA TYPHIMURIUM, Strain/Indicator: TA100, Metabolic Activation: S-9 MIX, Method: STANDARD PLATE); “inactive; negative” (Test System: Ames Salmonella typhimurium, Strain/Indicator: TA97, Metabolic Activation: None, Method: Suspension); “inactive; negative” (Test System: Ames Salmonella typhimurium, Strain/Indicator: TA97, Metabolic Activation: Rat, Liver, S-9, Aroclor 1254 (10% v/v), Method: Preincubation); “inactive; negative” (Test System: Ames Salmonella typhimurium, Strain/Indicator: TA98, Metabolic Activation: None, Method: Preincubation); “inactive; negative” (Test System: Ames Salmonella typhimurium, Strain/Indicator: TA98, Metabolic Activation: Rat, Liver, S-9, Aroclor 1254 (10% v/v), Method: Suspension). Besides, the mutagenic call is, setting by setting: (Test System: Ames Salmonella typhimurium, Strain/Indicator: TA100, Metabolic Activation: None, Method: Suspension) “inactive; negative”; (Test System: Ames Salmonella typhimurium, Strain/Indicator: TA100, Metabolic Activation: Rat, Liver, S-9, Aroclor 1254 (10% v/v), Method: Suspension) “inactive; negative”.

Turning to `COc1cc2c(c3oc(=O)c4c(c13)CCC4=O)[C@@]1(O)[C@@H](O2)O[C@@H]2O[C@@H]21`, the mutagenic call is “active; positive” (Test System: AMES SALMONELLA TYPHIMURIUM, Strain/Indicator: TA100, Metabolic Activation: NONE, Method: MICROSUSPENSION) and “active; positive” (Test System: AMES SALMONELLA TYPHIMURIUM, Strain/Indicator: TA100, Metabolic Activation: RAT, LIVER, S-9, AROCLOR 1254, Method: MICROSUSPENSION).

Consider `CC(=O)OCc1c2ccccc2c(C)c2ccccc12`, for which the mutagenic call under setting [3] was “active; positive” and the mutagenic call under setting [2] is “active; positive”.

Turning to `CN1CCN(C)CC1`, the mutagenic call was “inactive; negative” (Test System: AMES SALMONELLA TYPHIMURIUM, Strain/Indicator: TA98, Metabolic Activation: NONE, Method: PREINCUBATION); “inactive; negative” (Test System: AMES SALMONELLA TYPHIMURIUM, Strain/Indicator: TA98, Metabolic Activation: RAT, LIVER, S-9, PCB, Method: PREINCUBATION); “inactive; negative” under setting [1]; “inactive; negative” (Test System: AMES SALMONELLA TYPHIMURIUM, Strain/Indicator: TA100, Metabolic Activation: RAT, LIVER, S-9, PCB, Method: PREINCUBATION).

Take `CC(Cl)(Cl)Cl`: the mutagenic call reads like this: (End Point: IN VITRO CHROMOSOMAL ABERRATIONS, Test System: CHINESE HAMSTER OVARY CELLS, Metabolic Activation: NONE) “active; positive”; (End Point: IN VITRO CHROMOSOMAL ABERRATIONS, Test System: CHINESE HAMSTER OVARY CELLS, Metabolic Activation: RAT, LIVER, S-9, AROCLOR 1254) “inactive; negative”; (End Point: In vitro chromosomal aberrations, Test System: Chinese hamster lung (CHL/IU) cells, Metabolic Activation: Rat, Liver, S9, Phenobarbital and 5,6-benzoflavone) “inactive; negative (structural changes and ploidy showed weak response without dose respon”; under setting [4], “active; positive”; (Test System: AMES SALMONELLA TYPHIMURIUM, Strain/Indicator: TA97, Metabolic Activation: RAT, LIVER S-9, AROCLOR 1254, Method: STANDARD PLATE) “active; positive”; under setting [3], “active; positive”. Further, the mutagenic call runs as follows: (Test System: AMES SALMONELLA TYPHIMURIUM, Strain/Indicator: TA98, Metabolic Activation: RAT, LIVER S-9, AROCLOR 1254, Method: STANDARD PLATE) “active; positive”; under setting [2], “active; positive”; (Test System: AMES SALMONELLA TYPHIMURIUM, Strain/Indicator: TA100, Metabolic Activation: NONE, Method: VAPOR CHAMBER) “active; positive”; (Test System: AMES SALMONELLA TYPHIMURIUM, Strain/Indicator: TA100, Metabolic Activation: RAT, LIVER S-9, AROCLOR 1254, Method: STANDARD PLATE) “inactive; negative”; (Test System: AMES SALMONELLA TYPHIMURIUM, Strain/Indicator: TA100, Metabolic Activation: RAT, LIVER, S-9, AROCLOR 1254, Method: DESICCATOR) “active; positive”; (Test System: AMES SALMONELLA TYPHIMURIUM, Strain/Indicator: TA100, Metabolic Activation: RAT, LIVER, S-9, AROCLOR 1254, Method: VAPOR CHAMBER) “active; positive”. Moreover, the mutagenic call reads like this: (Test System: AMES SALMONELLA TYPHIMURIUM, Strain/Indicator: TA104, Metabolic Activation: NONE, Method: STANDARD PLATE) “inactive; negative”; (Test System: AMES SALMONELLA TYPHIMURIUM, Strain/Indicator: TA104, Metabolic Activation: RAT, LIVER, S-9, AROCLOR 1254, Method: STANDARD PLATE) “active; positive”; (Test System: AMES SALMONELLA TYPHIMURIUM, Strain/Indicator: TA1535, Metabolic Activation: NONE, Method: VAPOR CHAMBER) “active; positive”; (Test System: AMES SALMONELLA TYPHIMURIUM, Strain/Indicator: TA1535, Metabolic Activation: RAT, LIVER, S-9, AROCLOR 1254, Method: VAPOR CHAMBER) “active; positive”.

Consider `O=C1CNC(=O)N1`, for which the mutagenic call under setting [4] was “inactive; negative”; the mutagenic call (Test System: AMES SALMONELLA TYPHIMURIUM, Strain/Indicator: TA97, Metabolic Activation: RAT, LIVER, S-9, AROCLOR 1254, Method: STANDARD PLATE) was “inactive; negative”; the mutagenic call under setting [3] was “inactive; negative”; the mutagenic call (Test System: AMES SALMONELLA TYPHIMURIUM, Strain/Indicator: TA98, Metabolic Activation: RAT, LIVER, S-9, AROCLOR 1254, Method: STANDARD PLATE) is “inactive; negative”; the mutagenic call under setting [2] was “inactive; negative”; the mutagenic call (Test System: AMES SALMONELLA TYPHIMURIUM, Strain/Indicator: TA100, Metabolic Activation: RAT, LIVER, S-9, AROCLOR 1254, Method: STANDARD PLATE) is “inactive; negative”. Further, the mutagenic call was “inactive; negative” (Test System: AMES SALMONELLA TYPHIMURIUM, Strain/Indicator: TA102, Metabolic Activation: NONE, Method: STANDARD PLATE) and “inactive; negative” (Test System: AMES SALMONELLA TYPHIMURIUM, Strain/Indicator: TA102, Metabolic Activation: RAT, LIVER, S-9, AROCLOR 1254, Method: STANDARD PLATE).
